Data reported in US20250099364A1, “METHOD AND COMPOSITIONS FOR COSMETIC COMPOSITIONS” (MARY KAY INC., priority 2023, published 2025).

Tests used:
Assay type in all cases: cell-based
[1] = system: elastin production in fibroblasts; experiment: Elastin production in fibroblasts treated with oxytocin; settings: 72 hours
Description: FIG. 3. Fibroblasts were treated with oxytocin for 72 hours.

[2] = system: IL-15 production in keratinocytes; experiment: IL-15 production in keratinocytes treated with oxytocin; settings: 24 hours
Description: FIG. 4. Keratinocytes were treated with oxytocin for 24 hours.

[3] = system: collagen production in fibroblasts; experiment: Collagen production in fibroblasts treated with oxytocin; settings: 72 hours
Description: FIG. 2. Fibroblasts were treated with oxytocin for 72 hours.

Compound: CC[C@H](C)[C@@H]1NC(=O)[C@H](Cc2ccc(O)cc2)NC(=O)[C@@H](N)CSSC[C@@H](C(=O)N2CCC[C@H]2C(=O)N[C@@H](CC(C)C)C(=O)NCC(N)=O)NC(=O)[C@H](CC(N)=O)NC(=O)[C@H](CCC(N)=O)NC1=O [oxytocin]
- increase in elastin production compared to untreated control ([1]; 25 ng/mL oxytocin): +166%
- increase in elastin production compared to untreated control ([1]; 100 ng/mL oxytocin): +127%
- increase in elastin production compared to untreated control ([1]; 25 μg/mL oxytocin): +133%
- increase in elastin production compared to untreated control ([1]; 100 μg/mL oxytocin): +117%
- increase in IL-15 production compared to untreated control ([2]; 25 ng/mL oxytocin): +50%
- increase in IL-15 production compared to untreated control ([2]; 100 ng/mL oxytocin): +90%
- increase in IL-15 production compared to untreated control ([2]; 5 μg/mL oxytocin): +121%
- increase in IL-15 production compared to untreated control ([2]; 25 μg/mL oxytocin): +165%
- increase in IL-15 production compared to untreated control ([2]; 100 μg/mL oxytocin): +331%
- increase in collagen production compared to untreated control ([3]; 25 μg/mL oxytocin): +109%
- increase in collagen production compared to untreated control ([3]; 100 μg/mL oxytocin): +117%
